Results from patent US20230250253A1, “PLASTIC POLYMER BIOCONVERSION PROCESS” (GEORGIA STATE UNIVERSITY RESEARCH FOUNDATION, INC., priority 2020, published 2023).
Like-named read-outs stand apart in the source and are kept apart here.

Tests used:
[1] = system: Yarrowia lipolytica strain 78-003; test: FA profile on lipid- versus carbohydrate-containing media; format: cell-based; conditions: for Number of different FAs produced: cells grown 120 h
Text: The hexadecane medium used for FA profile experiments consisted of: 5% v/v hexadecane, 5 g L^−1 yeast nitrogen broth (w/amino acids), 0.5 g L^−1 KH2PO4, and 0.25 g L^−1 Mg2SO4.
Starch medium used for FA profile experiments consisted of: 50 g L^−1 hydrolyzed starch, 2 g L^−1 yeast nitrogen broth (w/amino acids), 0.5 g L^−1 KH2PO4, and 0.25 g L^−1 Mg2SO4. The medium consisted of: 5.4 g L^−1 Tween- 80®, 1.25 g L^−1 (NH4)2SO4, 2.5 g L^−1 KH2PO4, and 0.830 g L^−1 MgSO4. Glucose (5%) medium used for FA profile experiments consisted of: 50 g L^−1 glucose and 3 g L^−1 yeast extract.
Intracellular Lipid Quantification: A modified Bligh and Dyer extraction (Bligh and Dyer 1959) was used to extract lipids from yeast samples. Post-fermentation OP4 culture was withdrawn and aliquoted into pre-weighed 50 ml conical tubes, and tubes were centrifuged, and pellets washed twice with 0.9% NaCl. Pellets were lyophilized overnight using a BT3.3 EL Lyophilizer Tabletop (SP Scientific, USA), weighed, and suspended in a 2:1 v/v chloroform: methanol mixture (5 ml per 50 mg cell dry weight) and sonicated using a Sonic Dismembrator (Fisher Scientific, USA) at 20 kHz, 20% amplitude with pulsing (40 s on, 20 s off for a total working time of 20 min). The chloroform layer was taken and dried under a nitrogen stream. Dried lipids were weighed and derivatized for GC/MS analysis via base-catalyzed esterification with 2.5 ml sodium methoxide (0.1 M) (Milanesio et al. 2013). The reaction was quenched using 200 μL sulfuric acid (>95%), and 2.5 ml hexane was added to each sample, which was then vortexed and centrifuged (5 min at 5000 rpm). 1.5 ml from the top hexane layer was withdrawn for GC/MS analysis.
GC/MS Analysis of Lipid Profile: The FA profile was characterized with an Agilent 7890A gas chromatograph (GC) attached to a 5977A mass spectrometer detector and equipped with an Agilent J&W HP-5 ms UI capillary column ([…]×0.25 mm×[…]). 1 μL samples were injected via an Agilent 7693 Automatic Liquid Sampler in splitless mode with an inlet temperature of 275° C., using helium as the carrier gas at a flow rate of 1 ml min·1. GC oven temperature was held at 60° C. for 1 min, and ramped to 100° C. (rate: 25° C. min·1; hold 1 min). The oven temperature was then increased to 200° C. (rate: 25° C. min^−1; hold 1 min). The oven temperature is then increased to 220° C. (rate: […]; hold 7 min) and then increased to an ending temperature of 300° C. (rate: 25° C. min·1; hold 2 min). A C8-C24 FAME analytical standard was used during sample analyses as an external standard (Sigma Aldrich, USA).

Y. lipolytica = conditions: cited from earlier work
[2] = Precipitation of polyester-derived medium as a function of pH; format: physicochemical; conditions: PTT1 medium, pH lowered
Procedure: Method: One g of PTT fiber is added to 4 ml of industrial grade ethanol (100 percent ethanol), 1 ml DMSO+0.41 g NaOH (18 percent w/v). The mixture is refluxed with heating […] for 45 −60 min; the reflux allows for heating of the mixture without the ethanol evaporating. The heating process to depolymerize the fibers is as follows: in the first 5 min, no stirring, then stir for 10 min while the fibers crystallize into a white substance. Continue the heating/reflux for the remainder of the prescribed time, then let the system cool. The product will be a bluish, slurry with white crystals; it may also contain residual carpet materials such as polypropylene, calcium carbonate and adhesive. The bluish liquid is the alcohol fraction, containing the alcohol soluble components derived from PTT (propanol, propanal). The white crystals are the TPA. The pH during reflux is 12 to 13 and the pH of slurry is 12-12.5. The slurry can be centrifuged to separate the alcohol and TPA fractions, or the slurry can be added to an aqueous solution adjusted to pH=11 or 12 using NaOH. This latter step is used to make PTT1 medium. In PTT1 medium, the contents as described are added to 1 liter of pH adjusted water, while mixing; the added compounds will not precipitate. The pH of the resulting solution is adjusted to 9.5, typically using HCl and NaOH. 300 mg/l yeast extract is added as a N source. […]

[3] = system: Yarrowia lipolytica ATCC strain 46482; test: Intracellular lipid quantification and GC/MS fatty acid profile, OP5 / PCOP5 medium; format: cell-based; conditions: growth in OP5 medium
Procedure: Fermentation Optimization: For fermentation optimization experiments, pH, inoculum density, osmolarity, or carbon-nitrogen ratio were altered. For pH experiments, OP5 medium pH was adjusted to 4.0, 5.0, or 6.0 using 2.0 M H2SO4 or 4.0 M NaOH. A Corning 320 pH meter (Corning, USA) was used to measure pH. For starting inoculum density experiments, OP5 medium was inoculated at an inoculum density of either 1.0, 3.0, or 6.0. Aliquots of 1 ml were retrieved from Y. lipolytica overnight culture and inoculum density was measured via absorbance at 600 nm. Based on absorbance readings, a volume of cells corresponding to the desired inoculum density was retrieved from the overnight culture and centrifuged at 4,000 rpm. Pelleted cells were washed twice with 50 mM PBS solution and used to inoculate OP5 medium. […] After the selected parameters were altered, shake flask fermentations were carried out for 120 hours, after which cells were processed and biomass and lipid product formation were analyzed as described below. […]
Component media experiments were carried out in 500 ml Erlenmeyer flasks containing 50 ml medium, and Y. lipolytica was inoculated at an inoculum density of 1.0. […] The supernatant was decanted and cells washed twice with 50 mM PBS before being lyophilized, weighed as described above, and lipids extracted and quantified as described in the following section. […]

[4] = Y. lipolytica growing on the medium, this work
[5] = 250 g L^−1 substrate, strain with Poxl-6 and TGL4 inhibited

SMILES: O=C[C@H](O)[C@@H](O)[C@H](O)[C@H](O)CO [Glucose, glucose]
- C 16:0 in C 16 and C 18 FA profile [1, 4]: 16 percentages
- C 16:1 in C 16 and C 18 FA profile [1, 4]: 21 percentages
- C 18:0 in C 16 and C 18 FA profile [1, 4]: 7 percentages
- C 18:1 in C 16 and C 18 FA profile [1, 4]: 56 percentages
- Number of different FAs produced [1]: 10

SMILES: OCC(O)CO [Glycerol, glycerol]
- Lipid content (Y. lipolytica; [5]): 31 % CDW
- Lipid yield (Y. lipolytica; [5]): 15.5 g/L
- C 16:0 in C 16 and C 18 FA profile (Y. lipolytica; source Aggelis 2002): 15 percentages
- C 16:1 in C 16 and C 18 FA profile (Y. lipolytica; source Aggelis 2002): 2 percentages
- C 18:0 in C 16 and C 18 FA profile (Y. lipolytica; source Aggelis 2002): 11 percentages
- C 18:1 in C 16 and C 18 FA profile (Y. lipolytica; source Aggelis 2002): 47 percentages
- C 18:2 in C 16 and C 18 FA profile (Y. lipolytica; source Aggelis 2002): 21 percentages
- C 16:0 in C 16 and C 18 FA profile (Y. lipolytica; source André et al. 2009): 12 percentages
- C 16:1 in C 16 and C 18 FA profile (Y. lipolytica; source André et al. 2009): 11 percentages
- C 18:0 in C 16 and C 18 FA profile (Y. lipolytica; source André et al. 2009): 9 percentages
- C 18:1 in C 16 and C 18 FA profile (Y. lipolytica; source André et al. 2009): 57 percentages
- C 18:2 in C 16 and C 18 FA profile (Y. lipolytica; source André et al. 2009): 11 percentages
- C 16:0 in C 16 and C 18 FA profile (Y. lipolytica; source Makri et al. 2010): 13 percentages
- C 16:1 in C 16 and C 18 FA profile (Y. lipolytica; source Makri et al. 2010): 17 percentages
- C 18:0 in C 16 and C 18 FA profile (Y. lipolytica; source Makri et al. 2010): 6 percentages
- C 18:1 in C 16 and C 18 FA profile (Y. lipolytica; source Makri et al. 2010): 55 percentages
- C 18:2 in C 16 and C 18 FA profile (Y. lipolytica; source Makri et al. 2010): 7 percentages

SMILES: CCCCCCCCCCCCCCCC [Hexadecane, hexadecane]
- C 16:0 in C 16 and C 18 FA profile [1, 4]: 46 percentages
- C 16:1 in C 16 and C 18 FA profile [1, 4]: 15 percentages
- C 18:0 in C 16 and C 18 FA profile [1, 4]: 10 percentages
- C 18:1 in C 16 and C 18 FA profile [1, 4]: 25 percentages
- C 18:2 in C 16 and C 18 FA profile [1, 4]: 4 percentages
- Number of different FAs produced [1]: 5

SMILES: O=C(O)c1ccc(C(=O)O)cc1 [TPA, terephthalic acid]
- pH at which it precipitates from the medium [2]: around 8.5

SMILES: CCCCCCCC/C=C\CCCCCCCC(=O)OCCOCC(OCCO)C1OCC(OCCO)C1OCCO (stereo not drawn) [Tween® 80, polysorbate 80]
- Fatty acids produced attributable to carbon from the component [3]: 0.4 g/L
